# Reference: publication PMC11280390, “Synthesis of Nitrostyrylthiazolidine-2,4-dione Derivatives Displaying Antileishmanial Potential” (Pharmaceuticals, 2024)
# Values joined by “and” are separate entries in the source; they are usually repeats but may differ in a detail not shown here. Equal values may be shown once. Read-outs that look alike come from different tables or passages of the source.
# Legend:
# [1] = tested on: L. donovani promastigotes overexpressing NTR1; experiment: microbe, parasite or virus in culture; assay type: cell-based; conditions: Leishmania donovani, read-out: EC50 Values, NTR1 OE
# Protocol: (§1) EC50 values were determined as previously described. Nifurtimox was used as a positive control for activation via NTR1 [38] while delamanid was used as a positive control for activation via NTR2 [39].
# [2] = tested on: L. donovani promastigotes overexpressing NTR2; experiment: microbe, parasite or virus in culture; assay type: cell-based; conditions: Leishmania donovani, read-out: EC50 Values, NTR2 OE
# Protocol: as §1
# [3] = tested on: wild-type L. donovani (LdBOB) promastigotes; experiment: Antileishmanial activity against wild-type L. donovani promastigotes; assay type: cell-based; conditions: Leishmania donovani, read-out: EC50 Values, WT
# Protocol: as §1
# [4] = In vitro cytotoxicity on the human monocyte THP-1 cell line (MTT, 72 h); assay type: cell-based; conditions: human; THP-1, 72 h, MTT
# Protocol: (§2) The undifferentiated THP1 human monocyte cells (acute monocytic leukemia cell line purchased from ATCC, ref TIB-202) were routinely grown in RPMI 1640 medium (Life Technologies, Saint-Aubin, France) supplemented with 10% FCS (Life Technologies, Saint-Aubin, France), 100 U/mL penicillin, 100 µg/mL streptomycin and 2 mM L-glutamine at 37 °C, 5% CO2. The culture was maintained between 3.10^5 and 8.10^5 cells/mL. […] Wells were washed with RPMI and 100 µL of fresh complete medium was added. […] Then, 100 µL of MTT solution (0.5 mg/mL in medium) was added to each well. Cells were incubated for 2 h at 37 °C. […] Plates were shaken vigorously (700 rpm) for 10 min. […] (Palo Alto, CA, USA).
# [5] = tested on: Leishmania infantum promastigotes; experiment: In vitro antileishmanial activity on L. infantum promastigotes (MTT, 72 h); assay type: cell-based; conditions: Leishmania infantum, L. infantum promastigotes, MTT, read-out: Anti-L. infantum Promastigote Activity EC50
# Protocol: Luciferase-expressing Leishmania infantum was kindly provided by Professor Thierry Lang of the Institut Pasteur. L. infantum promastigotes were routinely grown at 27 °C in Schneider’s Drosophila Medium (Dominique […] SAS, Bernolsheim, France) supplemented with 10% fetal calf serum, 2% human urine, sodium pyruvate 0.04 mM, hemin 0.1 µg/mL, HEPES 5 mM, streptomycin 100 µg/mL, penicillin 100 U/mL, L-glutamine 2 mM (culture medium). The in vitro evaluation of the antileishmanial activity of the tested compound on L. infantum promastigotes forms was assessed according to the Mosmann protocol with slight modifications. […] Appropriate controls treated with DMSO, Miltefosine, Amphotericin B and Fexinidazole sulfone (reference drugs purchased from Sigma-Aldrich, Saint-Louis, MO, USA) were added to each set of experiments. The plates were incubated at 27 °C for 72 h, Then, each plate-well was microscope-analyzed to detect any precipitate formation. Afterward, 20 µL of MTT (3-(4,5-dimethylthiazol-2-yl)-2,5-diphenyltetrazolium bromide) (Sigma-Aldrich, Saint-Louis, MI, USA) solution (5 mg/mL in PBS) were added to each well and incubated at 27 °C for 4 h. The reaction was then stopped by the addition of 100 µL of 10% sodium dodecyl sulfate—50% isopropanol. Plates were shaken vigorously at 400 rpm for 10 min. […] EC50 values represent the mean value calculated from at least three separate experiments.
# HepG2 cell line = experiment: In vitro cytotoxicity on the human hepatic HepG2 cell line (MTT, 72 h); conditions: for CC50: read-out: HepG2 Cytotoxicity CC50, HepG2, 72 h, MTT; for Selectivity INDEX (SI = CC50/EC50): HepG2 CC50 / L. infantum promastigote EC50
# Protocol: (§3) HepG2 cell line (hepatocarcinoma cell line purchased from ATCC, ref HB-8065) was maintained at 37 °C, 5% CO2 with 90% humidity in MEM supplemented with 10% fetal bovine serum, 1% L-glutamine (200 mM) and penicillin (100 U/mL)/streptomycin ([…]) (complete MEM medium). The tested molecules’ cytotoxicity was assessed according to the method of Mosmann with slight modifications. Briefly, 5 × 10^3 cells in 100 μL of complete medium were inoculated into each well of 96-well plates and incubated at 37 °C in a humidified 5% CO2. After 24 h incubation, 100 μL of medium with various product concentrations dissolved in DMSO (final concentration less than 0.5% v/v) were added and the plates were incubated for 72 h at 37 °C. Triplicate assays were performed for each sample. Each plate well was then microscope-examined to detect possible precipitate formation before the medium was aspirated from the wells. Then, 100 μL of MTT (3-(4,5-dimethyl-2-thiazolyl)-2,5-diphenyl-2H-tetrazolium bromide) solution (0.5 mg/mL in medium without FCS) were then added to each well. Cells were incubated for 2 h at 37 °C, following which the MTT solution was removed and DMSO (100 μL) was added to dissolve the resulting blue formazan crystals. Plates were shaken vigorously (700 rpm) for 10 min. The absorbance was measured at 570 nm with 630 nm as reference wavelength using a TECAN Infinite F-200 spectrophotometer (Tecan Trading AG, Männedorf, Switzerland). DMSO was used as blank and doxorubicin (purchased from Sigma Aldrich, Saint Louis, MI, USA) as positive control. Cell viability was calculated as a percentage of control (cells incubated without compound). […] CC50 values represent the mean value calculated from three separate experiments.
# [6] = as above; conditions: human, HepG2 cells (hepatocarcinoma cell line, ATCC HB-8065), HepG2 Cytotoxicity CC50, HepG2, 72 h, MTT
# Protocol: as §3
# THP-1 cell line = experiment: In vitro cytotoxicity on the human monocyte THP-1 cell line (MTT, 72 h); assay type: cell-based; conditions: THP-1 CC50 / L. infantum promastigote EC50
# Protocol: as §2
# [7] = Lipophilicity by Chromatographic Hydrophobicity Index (CHI); assay type: physicochemical; conditions: pH 7.4, CHI; read-out: CHI logD7.4
# Protocol: B: acetonitrile, at a flow rate of 0.300 mL/min and 0.5-µL injections. The validity of the CHI versus retention time was established on a reference mixture containing theophylline, phenyltetrazole, benzimidazole, acetophenone, propiophenone, butyrophenone and valerophenone.
# [8] = Aqueous solubility in PBS by shake-flask method; assay type: physicochemical; conditions: 25 °C, pH 7.4, aqueous buffer, thermodynamic from solid, PBS pH 7.4, 25 °C
# Protocol: Briefly, an excess of compound (approx. 2 mg) was stirred in PBS (0.5 mL, 0.15 M, pH 7.4) at 25 °C for 72 h. A 100 µL sample was drawn, any excess material removed by centrifugation, and diluted tenfold with methanol/water 1:1 before HPLC-UV quantification using a pre-established calibration curve (PLRP-S column (Agilent), 3 µm particle size, 100 A porosity, 50 × 2.1 mm internal dimensions). Eluent: isocratic acetonitrile/water/formic acid 80:20:0.1, 0.4 mL/min, detection at 320 nm, 2-µL injections).
SMILES,EC50 [1],EC50 [2],EC50 [3],CC50 at 72 h [4],EC50 [5],also measured
C[C@]1(COc2ccc(N3CCC(Oc4ccc(OC(F)(F)F)cc4)CC3)cc2)Cn2cc([N+](=O)[O-])nc2O1 [Delamanid],0.002 ± 0.0003 µM,0.0003 ± 1e-06 µM,0.003 ± 0.0001 µM,–,–,–
"CCCCCCCCCCCCCCCCOP(=O)([O-])OCC[N+](C)(C)C [Miltefosine, reference compound]",–,–,–,30 ± 4 µM,3.3 ± 0.8 µM,–
"COc1cccc2c1C(=O)c1c(O)c3c(c(O)c1C2=O)C[C@@](O)(C(=O)CO)C[C@@H]3O[C@H]1C[C@H](N)[C@H](O)[C@H](C)O1 [Doxorubicin, reference compound]",–,–,–,2.2 ± 0.1 µM,–,CC50 (HepG2 cell line): 0.2 ± 0.02 µM
"Cn1c([N+](=O)[O-])cnc1COc1ccc(S(C)(=O)=O)cc1 [Fexinidazole sulfone, reference compound]",–,–,–,> 200 µM,3.1 ± 0.7 µM,Selectivity INDEX (SI = CC50/EC50) (HepG2 cell line): >64.5; CC50 at 72 h [6]: > 200 µM
CC1CS(=O)(=O)CCN1/N=C/c1ccc([N+](=O)[O-])o1 (centres unmarked) [Nifurtimox],0.144 ± 0.01 µM,0.163 ± 0.011 µM,3.11 ± 0.223 µM,–,–,–
"C[C@@H]1[C@H](O)[C@@H](C)/C=C/C=C/C=C/C=C/C=C/C=C/C=C/[C@H](O[C@@H]2O[C@H](C)[C@@H](O)[C@H](N)[C@@H]2O)C[C@@H]2O[C@](O)(C[C@@H](O)C[C@@H](O)[C@H](O)CC[C@@H](O)C[C@@H](O)CC(=O)O[C@H]1C)C[C@H](O)[C@H]2C(=O)O [Amphotericin B, reference compound]",–,–,–,17.6 ± 3 µM,0.06 ± 0.02 µM,–
"N#CCN1C(=O)S/C(=C\c2cccc([N+](=O)[O-])c2)C1=O [Compound 14c, (Z)-2-(5-(3-Nitrobenzylidene)thiazolidine-2,4-dion-3-yl)acetonitrile]",3.78 ± 0.313 µM,18.5 µM,22.1 µM,121 ± 9 µM,7 ± 2.96 µM,Selectivity INDEX (SI = CC50/EC50) (HepG2 cell line): 14 and 14.4; CC50 (HepG2 cell line): 101 ± 19.3 µM; CC50 at 72 h [6]: 101 µM; melting point: 173 to 175 °C; Selectivity index (THP-1) (THP-1 cell line): 17; chromatographic logD [7]: 2.85; solubility at 72 h ([8]; read-out: PBS Solubility (log S) (converted)): 15.8 µM; solubility at 72 h ([8]; read-out: PBS solubility): 16 µM
